Like-named read-outs stand apart in the source and are kept apart here.
Legend:
[1] = molecular target: T1, PDE Peak A (PDE5) from SW480 cells (Homo sapiens, UniProt O76074); assay: Inhibition of cGMP hydrolysis by PDE Peak A from SW480; assay type: biochemical
T1 construct: endogenous in cells; host or cells: SW480 colon cancer cells; DEAE-Trisacryl M fraction of the 105,000 g supernatant

[2] = molecular target: T2, cGMP binding sites of GST-cGB-PDE5 fusion protein (Homo sapiens, UniProt O76074); assay: cGMP binding assay; settings: for Competition with cGMP for binding of GST-cGB-PDE5 at high concentration: 100 μM, cGMP 2 μM
T2 construct: made in house; host or cells: E. coli BL21 (DE3)

HT-29 cells [3] = assay: Growth inhibition assay, SRB; assay type: cell-based, human
HT-29 cells [4] = assay: Apoptosis and necrosis, morphological (acridine orange/ethidium bromide); assay type: cell-based, human; settings: HT-29, treated 6 days
Source text: Following treatment with a compound, cultures can be assayed for apoptosis and necrosis by florescent microscopy following labeling with acridine orange and ethidium bromide. The method for measuring apoptotic cell number has previously been described by Duke & Cohen, “Morphological And Biochemical Assays Of Apoptosis,” Current Protocols In Immunology, Coligan et al., eds., 3.17.1-3.17.16 (1992), which is incorporated herein by reference.
For example, floating and attached cells can be collected by trypsinization and washed three times in PBS. Aliquots of cells can be centrifuged. The pellet can then be re-suspended in media and a dye mixture containing acridine orange and ethidium bromide prepared in PBS and mixed gently. The mixture can then be placed on a microscope slide and examined for morphological features of apoptosis.
Reference compounds and test compounds were analyzed for their novel PDE inhibitory activity in accordance with the protocols for the assay, supra. […] Apoptotic and necrotic cell death was determined previously (Duke and Cohen, In: Current Protocols in Immunology, 3.17.1-3.17.16, New York, John Wiley and Sons, 1992). […]
The apoptosis inducing activity for a series of phosphodiesterase inhibitors was determined. […] Apoptosis and necrosis were determined morphologically after acridine orange and ethidium bromide labeling in accordance with the assay described, supra.

[5] = molecular target: T3, novel cGMP-specific PDE Peak B (Section IIB) from SW480 cells (Homo sapiens, UniProt O00408); assay: Inhibition of cGMP hydrolysis by novel PDE Peak B from SW480; assay type: biochemical
T3 construct: IC50 Peak B (μM); native enzyme
T3 sequence (O00408 whole entry): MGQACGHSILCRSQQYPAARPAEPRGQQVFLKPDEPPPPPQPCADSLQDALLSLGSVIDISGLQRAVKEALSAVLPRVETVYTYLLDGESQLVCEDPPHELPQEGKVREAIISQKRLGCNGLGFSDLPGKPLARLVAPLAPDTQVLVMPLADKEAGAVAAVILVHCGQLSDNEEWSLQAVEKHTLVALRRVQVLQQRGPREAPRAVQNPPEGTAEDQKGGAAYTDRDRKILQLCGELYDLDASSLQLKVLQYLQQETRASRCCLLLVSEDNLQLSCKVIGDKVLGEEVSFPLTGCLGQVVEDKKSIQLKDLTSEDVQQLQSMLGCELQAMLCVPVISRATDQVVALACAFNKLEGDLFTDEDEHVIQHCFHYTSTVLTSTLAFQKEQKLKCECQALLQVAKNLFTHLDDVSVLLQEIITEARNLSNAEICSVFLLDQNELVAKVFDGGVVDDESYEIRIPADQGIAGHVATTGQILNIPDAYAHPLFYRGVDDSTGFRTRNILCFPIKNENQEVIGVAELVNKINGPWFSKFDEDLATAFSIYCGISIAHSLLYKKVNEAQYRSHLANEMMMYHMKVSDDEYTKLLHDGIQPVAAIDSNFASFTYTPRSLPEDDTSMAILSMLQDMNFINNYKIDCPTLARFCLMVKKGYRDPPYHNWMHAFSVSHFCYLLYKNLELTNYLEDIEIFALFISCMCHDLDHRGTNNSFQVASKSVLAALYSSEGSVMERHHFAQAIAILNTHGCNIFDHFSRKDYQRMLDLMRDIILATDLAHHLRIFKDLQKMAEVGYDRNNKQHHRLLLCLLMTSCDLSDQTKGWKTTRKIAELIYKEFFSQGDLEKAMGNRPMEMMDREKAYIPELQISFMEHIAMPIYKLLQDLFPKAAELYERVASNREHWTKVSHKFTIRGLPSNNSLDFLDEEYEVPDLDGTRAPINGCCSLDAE

[6] = tested on: novel cGMP-specific PDE Peak B (Section IIB) from SW480 cells; assay: as above; assay type: biochemical, human
[7] = tested on: Calu-6 adenocarcinoma cell line; assay: Cell growth, alone and in combination with vinca alkaloid; assay type: cell-based, human; settings: Calu-6, 1-hour exposure, 0.01 mcg/ml
Description: Exisulind and Compound I were analyzed using two human lung cancer cell lines; H460, a large cell carcinoma with a doubling time of 16 hours, and Calu-6, an adenocarcinoma with a doubling time of 21 hours. Exisulind and Compound I were analyzed alone and in combination with the vinca alkaloid, Navelbine™ vinorelbine. The cytotoxic agents were administered for 1 hour, while exisulind and Compound I were administered for either 1 hour or given as a continuous exposure.
Cells were plated on day 0 and allowed to attach. On day 1, the cells were exposed to one of the cytotoxic agents dissolved in media pre-warmed to 37° C. and incubated at 37° C. for 1 hour. The cells were then washed twice and re-fed pre-warned media with or without either exisulind or Compound I and incubated for one hour at 37° C. After the one-hour incubation, the cells were washed twice, re-fed, and returned to the incubator; the continuous exposure cultures were not washed and re-fed. Appropriate controls were included for each condition. […] All data points were done in triplicate and the mean graphed as a percent of control growth.
Exisulind and Compound I were first dissolved in DMSO and brought to the desired concentrations by slowly adding warm media to the drug-DMSO solution to prevent precipitation.

[8] = tested on: cGMP and cAMP in HT-29 cells; assay: Cyclic nucleotide levels in HT-29 cells by radioimmunoassay; assay type: cell-based, human; settings: HT-29 cells treated 30 minutes
[9] = tested on: premalignant lesions in mouse mammary gland organ culture; assay: Mammary gland organ culture model
Source text: Test compounds identified by the above methods can be tested for antineoplastic activity by their ability to inhibit the incidence of pre-neoplastic lesions in a mammary gland organ culture system. This mouse mammary gland organ culture technique has been successfully used by other investigators to study the effects of known antineoplastic agents such as certain NSAIDs, retinoids, tamoxifen, selenium, and certain natural products, and is useful for validation of the screening method of the present invention.
For example, female BALB/c mice can be treated with a combination of estradiol and progesterone daily, in order to prime the glands to be responsive to hormones in vitro. The animals are sacrificed, and thoracic mammary glands are excised aseptically and incubated for ten days in growth media supplemented with insulin, prolactin, hydrocortisone, and aldosterone. DMBA (7,12-dimethylbenz(a)anthracene) is added to medium to induce the formation of premalignant lesions. […]
The extent of the area occupied by the mammary lesions can be quantitated by projecting an image of the gland onto a digitation pad. […] The space covered by each of the non-regressed structures is also outlined on the digitization pad and quantitated by the computer. […]

CCCc1nn(C)c2c(=O)[nH]c(-c3cc(S(=O)(=O)N4CCN(C)CC4)ccc3OCC)nc12 [Sildenafil, sildenafil]
Inhibition of Peak A activity [1]: inhibited activity of Peak A

Nc1nc2c(nc(Br)n2[C@@H]2O[C@@H]3COP(=O)(O)O[C@H]3[C@H]2O)c(=O)[nH]1 [Compound 8-bromo-cGMP, 8-bromo-cGMP]
Competition with cGMP for binding of GST-cGB-PDE5 at high concentration [2]: can partially compete with cGMP

CCCCOC1C2OP(=O)(O)OCC2OC1n1cnc2c(=O)[nH]c(N)nc21 (stereo not shown) [2′-O-butyl-cGMP]
Competition with cGMP for binding of GST-cGB-PDE5 ([2]; 3H-cGMP 2 μM): did not compete with cGMP in binding

COc1cc(C=C2C(C)=C(CC(=O)O)c3cc(F)ccc32)cc(OC)c1OC [Compound B, (Z)-5-Fluoro-2-methyl-1-(3,4,5-trimethoxybenzylidene)-3-acetic acid]
Competition with cGMP for binding of GST-cGB-PDE5 ([2]; 3H-cGMP 2 μM): do not bind to the cGMP binding sites of PDE5

COCc1nc2c([nH]1)c(=O)n(C)c(=O)n2CC(C)C [8-methoxy-IBMX]
IC50 (HT-29 cells [3]; HT-29, 6 days, SRB assay): > 200 µM
% Apoptosis (HT-29 cells [4]): 2%
% Necrosis (HT-29 cells [4]): 1%

O=c1[nH]cnc2c1ncn2[C@@H]1O[C@@H]2COP(=O)(O)O[C@H]2[C@H]1O [Cyclic IMP]
Competition with cGMP for binding of GST-cGB-PDE5 at high concentration [2]: can partially compete with cGMP

Nc1ccn([C@@H]2O[C@@H]3COP(=O)(O)O[C@H]3[C@H]2O)c(=O)n1 [cCMP, cyclic CMP]
Competition with cGMP for binding of GST-cGB-PDE5 ([2]; 3H-cGMP 2 μM): did not compete with cGMP in binding

CC1(C)C(=O)Nc2ccc(C3=NNC(=O)CC3)cc21 [Indolidan]
IC50 [5]: > 100 µM
Ratio (IC50 PeakA/Peak B) [6]: <0.31

CCCCOC1C2OP(=O)(O)OCC2OC1n1cnc2c(N)ncnc21 (stereo not shown) [2′-O-butyl-cAMP]
Competition with cGMP for binding of GST-cGB-PDE5 ([2]; 3H-cGMP 2 μM): did not compete with cGMP in binding

Nc1ncnc2c1ncn2[C@@H]1O[C@@H]2COP(=O)(O)O[C@H]2[C@H]1O [Cyclic AMP]
Competition with cGMP for binding of GST-cGB-PDE5 [2]: did not compete with cGMP in binding

COc1cc(/C=C2/C(C)=C(CC(=O)NCc3ccccc3)c3cc(F)ccc32)cc(OC)c1OC [Compound E, (Z)-5-Fluoro-2-methyl-1-(3,4,5-trimethoxybenzylidene)-3-indenylacetamide, N-benzyl]
Competitive (with cGMP) binding/inhibition, Peak A [1]: does competitively (with cGMP) bind to PDE 5 (i.e., Peak A)
Competitive (with cGMP) binding/inhibition, Peak B [5]: also competitively (with cGMP) binds to PDE Peak B
IC50 [5]: 0.37 µM
Ratio (IC50 PeakA/Peak B) [6]: 1.0
Competition with cGMP for binding of GST-cGB-PDE5 ([2]; 3H-cGMP 2 μM): do not bind to the cGMP binding sites of PDE5

O=c1ccn([C@@H]2O[C@@H]3COP(=O)(O)O[C@H]3[C@H]2O)c(=O)[nH]1 [cUMP, cyclic UMP]
Competition with cGMP for binding of GST-cGB-PDE5 ([2]; 3H-cGMP 2 μM): did not compete with cGMP in binding

CCC1=C[C@@H]2CN(C1)Cc1c([nH]c3ccccc13)[C@@](C(=O)OC)(c1cc3c(cc1OC)N(C)[C@H]1[C@@](O)(C(=O)OC)[C@H](OC(C)=O)[C@]4(CC)C=CCN5CC[C@]31[C@@H]54)C2 [vinca alkaloid, vinorelbine]
% of control growth [7]: 52%
activity at 0.01 µg/mL ([7]; Homo sapiens, Calu-6, 1 h, read-out: % of control growth): 56%

CCOC(=O)C1=C[C@]2(CC)CCCN3CCc4c(n1c1ccccc41)[C@@H]32 [Vinpocetine]
IC50 [5]: > 100 µM

COc1ccc(C2CNC(=O)C2)cc1OC1CCCC1 (stereo not shown) [Rolipram]
Levels of cAMP [8]: increased cAMP
IC50 [5]: > 100 µM

5-fluoro-2-methyl-1-(p-methylsulfinylbenzylidene)-3-indenylacetic acid [Sulindac sulfide]
Increase in levels of cGMP [8]: greater than 50%
Levels of cAMP [8]: unaffected
Growth inhibition and apoptosis time course (HT-29 cells [3]; HT-29, 120 μM, viable cells by trypan blue, apoptosis morphological): capable of inhibiting tumor cell growth, and that the effect is accompanied by an increase in apoptosis
Competitive (with cGMP) binding/inhibition, Peak A [1]: competitively inhibited both Peaks A and B phosphodiesterases at the same potency
Inhibition of premalignant lesions in mammary gland organ culture [9]: inactive
Competition with cGMP for binding of GST-cGB-PDE5 ([2]; 3H-cGMP 2 μM): do not bind to the cGMP binding sites of PDE5

CCCOc1ccccc1-c1nc2nn[nH]c2c(=O)[nH]1 [Zaprinast, zaprinast]
Competition with cGMP for binding of GST-cGB-PDE5 ([2]; 3H-cGMP 2 μM): do not bind to the cGMP binding sites of PDE5
